Assay results: article PMC12040169 (PLOS Biology, 2025)

Experiment: in vitro
Conditions: human, hela cells, % viability

Structure (SMILES)	viability at 28.5 h, 10 µM [%]
CC(C)(C)C1=CC2=NC3(CCC3)C3C[C@](O)(CO)[C@@H](O)[C@@H]3N2O1 (stereo partly shown) [CBK303262]	91.1
Cn1c2c(c(=O)n(C)c1=O)[C@@H]1C(C[C@](O)(CO)[C@H]1O)C1(CCC1)N2 (stereo partly shown) [CBK303264]	118
CCC(=O)N1CCC(NCc2ccc(OCC(N)=O)cc2)C(C)C1 (stereo not shown) [CBK303989]	77.6
CC(C)(C)SCCOC(=O)C1CC(=O)N(Cc2ccccn2)C1 (stereo not shown) [CBK303991]	90.8
CCC1c2ccsc2CCN1CC(O)COCc1ccco1 (stereo not shown) [CBK303992]	97.3
COc1ccc2[nH]cc(C3CCN(Cc4cc(C)no4)CC3)c2c1 [CBK303996]	91.5
Cn1ccnc1CN1CCCN(C(=O)c2cccc(C#N)c2)CC1 [CBK303998]	85.2
Cc1nc(C)n(CC2CN(Cc3cn4ccccc4n3)CCO2)n1 (stereo not shown) [CBK303999]	97.1
Cc1nc(CCNCc2c(C(C)C)nn(C)c2N(C)C)cs1 [CBK304002]	98.8
Clc1ccc(CN2CCC(NCCCn3cccn3)CC2)cc1 [CBK304004]	84.2
Cc1nc(C)c(C(C)NCc2c(C(C)C)nn(C)c2N(C)C)s1 (stereo not shown) [CBK304005]	74.3
Cc1nc(C)n(CC2CCCCN2Cc2cn3ccccc3n2)n1 (stereo not shown) [CBK304008]	111
N#Cc1ccc(CN2CCCN(C(=O)c3cccc(F)c3)CC2)cc1 [CBK304010]	96.2
CC(=O)Nc1cccc(CN(CCCO)C2CCc3ccccc32)c1 (stereo not shown) [CBK304011]	95
c1ccc(C(NCc2cnc(-c3cnccn3)s2)C2CCC2)cc1 (stereo not shown) [CBK304016]	106
CC1CN(c2cc(CNCc3cnn4ccccc34)ccn2)CCO1 (stereo not shown) [CBK304018]	84.1
O=C1OCCN1CCN1CCCN(Cc2ccc(F)cc2)CC1 [CBK304023]	103
CNS(=O)(=O)c1ccc(C)c(C(=O)N(C)Cc2cnn(C)c2)c1 [CBK304026]	89.1
Cc1cccn2cc(CCNC(=O)CN(C)C3CCSC3)nc12 (stereo not shown) [CBK304027]	84.6
Cc1ccc(C#N)cc1S(=O)(=O)NC1CC(=O)c2ccccc21 (stereo not shown) [CBK304030]	117
CCN1CC(C(=O)N2CC(O)CC2c2cc(F)ccc2F)CC1=O (stereo not shown) [CBK304031]	103
CCN1CCC2CCC(C1)N2Cc1ccc(Oc2cnccn2)cc1 (stereo not shown) [CBK304034]	95.7
COCC(=O)N1CCN(Cc2cccc(-c3ccccn3)c2)CC1 [CBK304035]	91.3

Structure (SMILES)	viability at 28.5 h, 10 µM [%]
CCCCc1noc(CN2CCCC2C(=O)NCc2ccco2)n1 (stereo not shown) [CBK304036]	88
Cc1nc(C)n(CC2CCCN(c3ncnc4ccsc34)C2)n1 (stereo not shown) [CBK304037]	71.8
Cc1ccc(C)c2c1CCCC2N1CCC(NS(C)(=O)=O)CC1 (stereo not shown) [CBK304038]	103
CCN(C(C)COC)S(=O)(=O)c1ccc(C(F)(F)F)nc1 (stereo not shown) [CBK304042]	88.8
c1cnn(C2CCCN(Cc3ccc(Oc4cnccn4)cc3)C2)c1 (stereo not shown) [CBK304043]	96.9
CCOC(=O)c1cnn(C2CCCN(Cc3ccc(C#N)o3)C2)c1 (stereo not shown) [CBK304045]	116
CCOC(=O)c1cnn(C2CCCN(Cc3cccc(O)c3)C2)c1 (stereo not shown) [CBK304046]	100
CCONC(=O)c1cc(-c2ccccc2C)nc2c1cnn2C(C)C [CBK304048]	95.5
COCCn1c(SCc2cn3c(C)cccc3n2)nc(C)c1C [CBK304050]	83.9
Cc1cc(N2CCN(C(=O)c3ccsc3)CC2)nc(C(C)C)n1 [CBK304053]	102
Cc1nc(CCNCc2c(C)nn(C)c2N2CCOCC2)cs1 [CBK304054]	101
N#Cc1ccc(NCc2ccccc2CN2CCCC2CO)nc1 (stereo not shown) [CBK304055]	95.8
Cc1c(CNCCN2CCN(C)CC2c2ccccc2)cnn1C (stereo not shown) [CBK304056]	98.8
Cc1cccc(CCNC(=O)N2CCN(Cc3ccccn3)CC2)c1 [CBK304057]	103
CCOC(=O)c1cnn(C2CCCN(Cc3c(C)n[nH]c3C)C2)c1 (stereo not shown) [CBK304059]	88.6
COCn1nccc1S(=O)(=O)NCCc1cn2ccccc2n1 [CBK304060]	80.6
CCOc1ccc(CC(=O)Nc2ncccc2OCCCC#N)cc1 [CBK304062]	90.3
O=C(Nc1cccc(F)c1)N(Cc1cccnc1)CC1CCCO1 (stereo not shown) [CBK304065]	109
CC(=O)Nc1cccc(C(=O)N2CCN(Cc3ccccn3)CC2)c1 [CBK304067]	86.3
Cc1cccc(N2CCN(C(=O)CCc3ccsc3)C(C)C2)n1 (stereo not shown) [CBK304069]	96.6
Cc1ccc(CC2CCCN2CC(=O)NCc2ccccn2)cc1 (stereo not shown) [CBK304070]	96.6
Cc1c(C(=O)N2CCC[C@@H]2CO)nnn1Cc1ccc(F)cc1F [CBK304071]	89.2
COC(=O)c1cccc2c1CCCN2Cc1nnc(C2CCC2)o1 [CBK304072]	105

Structure (SMILES)	viability at 28.5 h, 10 µM [%]
Cc1cc(S(=O)(=O)N2CCN(CCO)C(C)C2)sc1Cl (stereo not shown) [CBK304074]	91.4
CCCCNc1cc(N2CCN(C(=O)COC)CC2)nc(N)n1 [CBK304078]	98.8
Cc1cccc(OCCN2C(=O)CC(Cc3cnn(C)c3)C2=O)c1 (stereo not shown) [CBK304081]	99.7
CCc1nc(CC(=O)N2CCOC(c3ccc(F)cc3)C2)cs1 (stereo not shown) [CBK304083]	87
Cc1nonc1CNC(=O)N1CCOCC(C2CCC2)C1 (stereo not shown) [CBK304086]	97.4
Cc1cc(C)n(CCCNC(=O)N2CCC(c3nccs3)CC2)n1 [CBK304088]	91.9
CCc1ccc2c(c1)C(CCNC(=O)c1c(C)noc1C(F)F)C(=O)N2 (stereo not shown) [CBK304090]	95.1
COCCc1noc(CC2CCN(c3cc(C)ncc3C#N)CC2)n1 [CBK304092]	90.4
Cc1cc(CS(=O)(=O)N2CCOCC2c2cccc(F)c2)no1 (stereo not shown) [CBK304093]	95.4
Cc1cc(O)nc(C(C)N2CCOC(C(C)(C)C)C2)n1 (stereo not shown) [CBK304097]	104
Cc1nnnn1-c1cc(NC(=O)NCCCc2nc[nH]n2)ccc1F [CBK304102]	87.7
Cc1c(C(=O)N(C)Cc2csc3ccccc23)nnn1C1CCNCC1 [CBK304103]	84.6
CC(=O)Nc1ccc(CN(CCO)C2CCc3ccccc32)cc1 (stereo not shown) [CBK304104]	93.2
CC(N)C1CCCN(S(=O)(=O)c2ccc(OCc3ncnn3C)cc2)C1 (stereo not shown) [CBK304105]	114
CN(C)CC1CN(C(=O)Nc2ncc(Cc3ccccc3Cl)s2)CCO1 (stereo not shown) [CBK304107]	93.6
CN(CCc1cccnc1)CC(=O)Nc1cccc(Cl)c1 [CBK304108]	93.1
Cc1ccc(-n2nnc(C(=O)N3CCCCC3C(=O)O)c2C)cc1 (stereo not shown) [CBK304109]	87.7
COc1ncccc1-c1csc(C2CN3CCCC3CO2)n1 (stereo not shown) [CBK304110]	83.5
CS(=O)(=O)CCS(=O)(=O)N1CCOCC1c1cccc(F)c1 (stereo not shown) [CBK304111]	84.2
Cc1ccc(-c2csc(C3CN4CCCC4CO3)n2)s1 (stereo not shown) [CBK304113]	121
CC(C)CCn1cc(C(=O)N2CCNCC2c2cccc(Cl)c2)nn1 (stereo not shown) [CBK304115]	91.4
